Test results reported in patent publication US6852316B2, “Cancer treatment” (Queen Mary & Westfield College, priority 1998, dated 2005).
Entries after “also recorded” stand apart in the source; their conditions may differ.

Legend:
Format in all cases: cell-based
breast cancer cells [1] = assay: Invasion chamber assay, IGF-I stimulated breast cancer cell invasion
Procedure: The effect of angiotensin-II (A-II) in inhibiting growth factor-induced stimulated cancer cell invasiveness was studied as a model system and the results are shown in FIG. 3. The study was carried out using an invasion chamber in which two compartments are separated by a perforated membrane coated in matrix protein. A chemoattractant, IGF-I, was added to the medium on one side of the chamber, and the breast cancer cells to the other. Invasiveness was measured by counting the cells that migrated from one chamber to the other.

breast cancer cells [2] = assay: Breast cancer cell growth in culture, light microscopy
β1 integrin [3] = assay: 125I labelling and immunoprecipitation of β1 integrin, SDS-PAGE autoradiography; conditions: MCF-7 cells, A-II 10^−5 M for 24 hours, compared to control, non-reducing conditions
Procedure: Immunoprecipitation is a technique for the detection and quantification of target protein. It comprises the five steps of radiolabelling of the cell-membrane proteins, cell lysis, formation of the specific antibody-antigen complexes, extraction of these complexes and analysis of the radiolabelled target proteins contained within the immunoprecipitation. All experiments were performed in triplicate.
For immunoprecipitation experiments, MCF-7 cells were cultured in 5% FBS-supplemented MEM. When sub-confluent, the medium was removed and the cells washed with phosphate buffered saline (PBS) (0.15 M sodium chloride, 20 mM sodium monophosphate; pH 7.5). The medium was then replaced with serum-free MEM and treated with angiotensin-II (A-II) at a concentration of 10^−5 M for 24 hours. Control cells were cultured in serum-free medium only. On this occasion the cells were harvested not by trypsinisation, which may impair the immunoprecipitation process, but with a cell scraper. They were then gently passed repeatedly through a narrow pipette, to break down cell clusters, and centrifuged at 900 rpm per ten minutes.
The cell pellets as above were taken up in PBS and counted with the haemocytometer. Trypan blue exclusion was employed so that 1-2×10^6 viable cells were taken up in each 1 ml aliquot. […]

β1 integrin [4] = assay: Immunocytochemistry for β1 integrin expression in MCF-7 cancer cell line; conditions: MCF-7 cells treated with A-II at 10^−5 M, versus control
Procedure: Immunocytochemical straining of both receptors was based on the standard streptavidinbiotin peroxidase method. For the optimal working concentration of both antibodies serial dilutions were performed. The AT1R antibody 6313/G2 in the range 1:1 to 1:500 and for anti-β1 integrin between 1:10 and 1:500.
For integrin B1 receptor straining both with and without A-II pre-treatment, harvested cells were plated onto sterile microscope slides within slide culture wells (Heraeus Instruments GmbH, Osterode am Harz, Germany) and incubated with fresh BCM. When sub-confluent the medium was replaced with serum-free BCM to which was added Angiotensin-II (A-II), or not in the case of controls which were subjected to otherwise identical preparation and straining. Angiotensin-II (A-II) was added in the concentration range 10^−5M to 10^−9M and incubated for 24 hours. The medium was then removed, the slides rinsed with PBS, air dried and stored frozen as above.
The slides, prepared as above, were removed from frozen storage and placed directly into 100% acetone (British Drug Houses) at −10° C. for 10 minutes. They were then air-dried for 10 minutes and rehydrated in 0.05 M Tris-buffered saline (TBS)(0.05 M sodium chloride, 0.05 M Trizma base, 36 mM hydrochloric acid, pH 7.6) twice for 3 minutes each. […]

“Asp-Arg-Val-Tyr-Ile-His-Pro-Phe (DRVYIHPF; Sequence Source Uncertain) [angiotensin-II]” was tested, and the “reduction in mean invasion” value (breast cancer cells [1]; A-II pre-treatment versus control, IGF-I chemoattractant) was “tenfold reduction”, the mean invasion (breast cancer cells [1]; cells treated with A-II prior to invasion assay, chemoattractant IGF-I, control 1.58%, p=0.0011) was 0.15% and the “stimulation of cell growth” value (breast cancer cells [2]; breast cancer cells in culture) was “did not stimulate cell growth”. For the same substance, the “size of cell clusters in culture” value (breast cancer cells [2]; grown in presence of angiotensin-II versus control cultures, light microscopy) was “larger clusters of cells”, the “β1 integrin expression (density of protein band on gel autoradiograph)” value (β1 integrin [3]) was “relative increase in density; also recorded: increased expression” and the “β1 integrin staining (expression of β1 integrin protein)” value (β1 integrin [4]) was “increase in staining”.
